In general, IC50 refers to the concentration needed to halve the response being measured.

For experiment [1], the target named is T1, G12D-mutant human KRAS (amino acid residues 1-188) (Homo sapiens, UniProt P01116, G12D).
T1 construct: G12D or G12C-mutant human KRAS (amino acid residues 1-188) with FLAG tag; made in house; host or cells: E. coli
The experiment is described as follows: KRAS Binding Disruption Assay (AlphaScreen; biotinylated KRpep-2d analogue or RAF1-RBD), G12D. Particulars: KRAS G12D; geometric mean; read-out: KRAS GMean IC50 (uM) MUTATION: G12D. In outline:
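Mutant KRAS (5-20 nM) incubated 1 h at 25° C with test compound and 5-20 nM biotinylated KRpep-2d analogue or RAF1-RBD in 20 mM HEPES pH 7.5, 100 mM NaCl, 5 mM MgCl2, 0.01% Tween-20, 0.01% BSA.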
(In general: In Alpha technology, singlet oxygen from a donor bead excites a nearby acceptor bead.)

Experiment [2] deals with T2, G12V-mutant human KRAS (amino acid residues 1-188) (Homo sapiens, UniProt P01116, G12V).
T2 construct: G12V-mutant human KRAS (amino acid residues 1-188) with FLAG tag was purified from E. coli; made in house; host or cells: E. coli
The experiment is described as follows: KRAS Binding Competition Assay (AlphaScreen; biotinylated KRpep-2d analogue), G12V. The following applies: geometric mean, read-out: KRAS GMean IC50 (uM) MUTATION: G12V. The protocol:
Compound binding disrupts the interaction of KRpep-2d with KRAS, leading to a decrease in Alpha signal.
All assay components were prepared in 20 mM HEPES (pH 7.5), 100 mM NaCl, 5 mM MgCl2, 0.01% Tween-20, and 0.01% BSA. Biotinylated analogues of KRpep-2d were custom synthesized. The binding competition assays were performed using 10 nM of mutant KRAS and 10 nM of biotinylated KRpep-2d analogue. 19 μL of KRAS protein and 4 μL of biotinylated KRpep-2d were added to the wells of a 384-well plate containing 1 μL of various concentrations of test compound or DMSO vehicle. 16 wells containing KRAS, biotinylated KRpep-2d, and 5% DMSO served as high controls. 16 wells containing KRAS only and 5% DMSO served as low controls. Binding reactions were incubated for 1 hour at 25° C., then Anti-Flag Acceptor and Streptavidin Donor Alpha beads were added at a final concentration of 10 μg/mL for an additional hour at room temperature. Alpha signal was read out on a Perkin Elmer Envision HTS instrument. The percentage inhibition at individual compound concentrations relative to high and low controls was calculated. The data were analyzed by using nonlinear regression to generate IC50 values.

On to `Cc1cccc2cccc(-c3ccc4c(N5CC6CCC(C5)N6C(=O)CC#N)nc(OC[C@@H]5CCCN5C)nc4c3F)c12` (racemic) [P-0019, 3-((1R,5S)-3-(8-fluoro-7-(8-methylnaphthalen-1-yl)-2-(((RS)-1-methylpyrrolidin-2-yl)methoxy)quinazolin-4-yl)-3,8-diazabicyclo[3.2.1]octan-8-yl)-3-oxopropanenitrile], for which the IC50 in experiment [1] and in experiment [2] was 10 to 100 µM throughout.
As for `OCC1(COc2nc(N3C[C@H]4CC[C@@H](C3)N4)c3ccc(-c4cc(O)cc5ccccc45)c(F)c3n2)CC(O)C1` (stereo partly drawn) [P-0583, 4-(4-((1R,5S)-3,8-diazabicyclo[3.2.1]octan-3-yl)-8-fluoro-2-((3-hydroxy-1-(hydroxymethyl)cyclobutyl)methoxy)quinazolin-7-yl)naphthalen-2-ol], the IC50 in experiment [1] fell in the range of 0.0001 to 10 µM.
Turning to `OCC(COc1nc(N2C[C@H]3CC[C@@H](C2)N3)c2ccc(-c3cc(O)cc4ccccc34)c(F)c2n1)c1ccccc1` (stereo partly drawn) [P-0584, 4-(4-((1R,5S)-3,8-diazabicyclo[3.2.1]octan-3-yl)-8-fluoro-2-(3-hydroxy-2-phenylpropoxy)quinazolin-7-yl)naphthalen-2-ol], in experiment [1], the IC50 is 0.0001 to 10 µM.
Same read-out and setting: the figure for `CC(C)(C)C(CO)COc1nc(N2C[C@H]3CC[C@@H](C2)N3)c2ccc(-c3cc(O)cc4ccccc34)c(F)c2n1` (stereo partly drawn) [P-0585, 4-(4-((1R,5S)-3,8-diazabicyclo[3.2.1]octan-3-yl)-8-fluoro-2-(2-(hydroxymethyl)-3,3-dimethylbutoxy)quazolin-7-yl)naphthalen-2-ol] is 0.0001 to 10 µM; for `CC(C)C(CO)COc1nc(N2C[C@H]3CC[C@@H](C2)N3)c2ccc(-c3cc(O)cc4ccccc34)c(F)c2n1` (stereo partly drawn) [P-0586, 4-(4-((1R,5S)-3,8-diazabicyclo[3.2.1]octan-3-yl)-8-fluoro-2-(2-(hydroxymethyl)-3-methylbutoxy)quinazolin-7-yl)naphthalen-2-ol] it is 0.0001 to 10 µM.
For `OCC1(CNc2nc(N3C[C@H]4CC[C@@H](C3)N4)c3ccc(-c4cc(O)cc5ccccc45)c(F)c3n2)CCC1` [P-0587, 4-(4-((1R,5S)-3,8-diazabicyclo[3.2.1]octan-3-yl)-8-fluoro-2-(((1-(hydroxymethyl)cyclobutyl)methyl)amino)quinazolin-7-yl)naphthalen-2-ol], the IC50 in experiment [1] was in the range of 0.0001 to 10 µM.
Still for that read-out and setting: next, `OCC1(COc2nc(N3C[C@H]4CC[C@@H](C3)N4)c3ccc(-c4cc(O)cc5ccccc45)c(F)c3n2)CCCC1` [P-0588, 4-(4-((1R,5S)-3,8-diazabicyclo[3.2.1]octan-3-yl)-8-fluoro-2-((1-(hydroxymethyl)cyclopentyl)methoxy)quinazolin-7-yl)naphthalen-2-ol]: 0.0001 to 10 µM; `CN(C)CC(C)(C)COc1nc(N2C[C@H]3CC[C@@H](C2)N3)c2ccc(-c3cc(O)cc4ccccc34)c(F)c2n1` [P-0589, 4-(4-((1R,5S)-3,8-diazabicyclo[3.2.1]octan-3-yl)-2-(3-(dimethylamino)-2,2-dimethylpropoxy)-8-fluoroquinazolin-7-yl)naphthalen-2-ol]: 0.0001 to 10 µM.
On the same count and under the same terms, next, `CC(C)(CNS(C)(=O)=O)COc1nc(N2C[C@H]3CC[C@@H](C2)N3)c2ccc(-c3cc(O)cc4ccccc34)c(F)c2n1` [P-0590, N-(3-((4-((1R,5S)-3,8-diazabicyclo[3.2.1]octan-3-yl)-8-fluoro-7-(3-hydroxynaphthalen-1-yl)quinazolin-2-yl)oxy)-2,2-dimethylpropyl)methanesulfonamide]: 0.0001 to 10 µM; `CC(=O)NCC(C)(C)COc1nc(N2C[C@H]3CC[C@@H](C2)N3)c2ccc(-c3cc(O)cc4ccccc34)c(F)c2n1` [P-0591, N-(3-((4-((1R,5S)-3,8-diazabicyclo[3.2.1]octan-3-yl)-8-fluoro-7-(3-hydroxynaphthalen-1-yl)quinazolin-2-yl)oxy)-2,2-dimethylpropyl)acetamide]: 0.0001 to 10 µM.
With `CC(C)(CNC(=O)OCc1ccccc1)COc1nc(N2C[C@H]3CC[C@@H](C2)N3)c2ccc(-c3cc(O)cc4ccccc34)c(F)c2n1` [P-0592, benzyl (3-((4-((1R,5S)-3,8-diazabicyclo[3.2.1]octan-3-yl)-8-fluoro-7-(3-hydroxynaphthalen-1-yl)quinazolin-2-yl)oxy)-2,2-dimethylpropyl)carbamate], the half-inhibitory concentration (IC50) in experiment [1] was in the range of 0.0001 to 10 µM.
The same measure, in the same setting: next, `Cc1ccc2[nH]ncc2c1-c1c(F)cc2c(N3C[C@H]4CC[C@@H](C3)N4)nc(OCC34CCCN3CCC4)nc2c1F` [P-0593, 4-((1R,5S)-3,8-diazabicyclo[3.2.1]octan-3-yl)-6,8-difluoro-7-(5-methyl-1H-indazol-4-yl)-2-((tetrahydro-1H-pyrrolizin-7a(5H)-yl)methoxy)quinazoline]: 0.0001 to 10 µM; `CC(=O)Nc1ccc(Cl)c(-c2c(F)cc3c(N4C[C@H]5CC[C@@H](C4)N5)nc(OCC45CCCN4CCC5)nc3c2F)c1` [P-0594, N-(3-(4-((1R,5S)-3,8-diazabicyclo[3.2.1]octan-3-yl)-6,8-difluoro-2-((tetrahydro-1H-pyrrolizin-7a(5H)-yl)methoxy)quinazolin-7-yl)-4-chlorophenyl)acetamide]: 0.0001 to 10 µM; `Nc1ccc(Cl)c(-c2c(F)cc3c(N4C[C@H]5CC[C@@H](C4)N5)nc(OCC45CCCN4CCC5)nc3c2F)c1` [P-0595, 3-(4-((1R,5S)-3,8-diazabicyclo[3.2.1]octan-3-yl)-6,8-difluoro-2-((tetrahydro-1H-pyrrolizin-7a(5H)-yl)methoxy)quinazolin-7-yl)-4-chloroaniline]: 0.0001 to 10 µM.
Turning to `Cc1ccc(N)cc1-c1c(F)cc2c(N3C[C@H]4CC[C@@H](C3)N4)nc(OCC34CCCN3CCC4)nc2c1F` [P-0596, 3-(4-((1R,5S)-3,8-diazabicyclo[3.2.1]octan-3-yl)-6,8-difluoro-2-((tetrahydro-1H-pyrrolizin-7a(5H)-yl)methoxy)quinazolin-7-yl)-4-methylaniline], the IC50 in experiment [1] was in the range of 0.0001 to 10 µM.
With `CCCc1cccc2[nH]cc(-c3ccc4c(N5C[C@H]6CC[C@@H](C5)N6)nc(OCC56CCCN5CCC6)nc4c3F)c12` [P-0598, 4-((1R,5S)-3,8-diazabicyclo[3.2.1]octan-3-yl)-8-fluoro-7-(4-propyl-1H-indol-3-yl)-2-((tetrahydro-1H-pyrrolizin-7a(5H)-yl)methoxy)quinazoline], in experiment [1], the IC50 was 0.0001 to 10 µM.
Consider `Oc1cc(-c2ccc3c(N4C[C@H]5CC[C@@H](C4)N5)nc(N4CC5(CCNC5)C4)nc3c2F)c2ccccc2c1` [P-0599], for which the IC50 in experiment [1] was in the range of 0.0001 to 10 µM.
Consider `Oc1cc(-c2ccc3c(N4C[C@H]5CC[C@@H](C4)N5)nc(N4CC5(CCCNC5)C4)nc3c2F)c2ccccc2c1` [P-0600, 4-(4-((1R,5S)-3,8-diazabicyclo[3.2.1]octan-3-yl)-8-fluoro-2-(2,6-diazaspiro[3.5]nonan-2-yl)quinazolin-7-yl)naphthalen-2-ol], for which the IC50 in experiment [1] lay in the range of 0.0001 to 10 µM.
On to `CNC1CN(c2nc(N3C[C@H]4CC[C@@H](C3)N4)c3ccc(-c4cc(O)cc5ccccc45)c(F)c3n2)C1` [P-0601, 4-(4-((1R,5S)-3,8-diazabicyclo[3.2.1]octan-3-yl)-8-fluoro-2-(3-(methylamino)azetidin-1-yl)quinazolin-7-yl)naphthalen-2-ol], for which, in experiment [1], the IC50 lay in the range of 0.0001 to 10 µM.
With `Oc1cc(-c2ccc3c(N4C[C@H]5CC[C@@H](C4)N5)nc(N4CC(N5CCC(O)C5)C4)nc3c2F)c2ccccc2c1` (stereo partly drawn) [P-0602, 1-(1-(4-((1R,5S)-3,8-diazabicyclo[3.2.1]octan-3-yl)-8-fluoro-7-(3-hydroxynaphthalen-1-yl)quinazolin-2-yl)azetidin-3-yl)pyrrolidin-3-ol], the IC50 in experiment [1] lay in the range of 0.0001 to 10 µM.
Same read-out and setting: the figure for `Cc1nccc2[nH]cc(-c3ccc4c(N5C[C@H]6CC[C@@H](C5)N6)nc(OCC56CCCN5CCC6)nc4c3F)c12` [P-0605, 4-((1R,5S)-3,8-diazabicyclo[3.2.1]octan-3-yl)-8-fluoro-7-(4-methyl-1H-pyrrolo[3,2-c]pyridin-3-yl)-2-((tetrahydro-1H-pyrrolizin-7a(5H)-yl)methoxy)quinazoline] is 10 to 100 µM.
Take `OCCCc1cccc2[nH]cc(-c3ccc4c(N5C[C@H]6CC[C@@H](C5)N6)nc(OCC56CCCN5CCC6)nc4c3F)c12` [P-0606, 3-(3-(4-((1R,5S)-3,8-diazabicyclo[3.2.1]octan-3-yl)-8-fluoro-2-((tetrahydro-1H-pyrrolizin-7a(5H)-yl)methoxy)quinazolin-7-yl)-1H-indol-4-yl)propan-1-ol]: in experiment [1], the IC50 is 0.0001 to 10 µM.
On to `Nc1ccc(F)c(-c2c(F)cc3c(N4C[C@H]5CC[C@@H](C4)N5)nc(OCC45CCCN4CCC5)nc3c2F)c1` [P-0608, 3-(4-((1R,5S)-3,8-diazabicyclo[3.2.1]octan-3-yl)-6,8-difluoro-2-((tetrahydro-1H-pyrrolizin-7a(5H)-yl)methoxy)quinazolin-7-yl)-4-fluoroaniline], for which, in experiment [1], the IC50 was in the range of 0.0001 to 10 µM.

The values are drawn from patent US20230081426A1, “COMPOUNDS AND METHODS FOR KRAS MODULATION AND INDICATIONS THEREFOR” (Plexxikon Inc., priority 2020, published 2023).
